Assay [1] has as its target T1, human PPARγ (Homo sapiens, UniProt P37231).
T1 sequence (P37231 1-505): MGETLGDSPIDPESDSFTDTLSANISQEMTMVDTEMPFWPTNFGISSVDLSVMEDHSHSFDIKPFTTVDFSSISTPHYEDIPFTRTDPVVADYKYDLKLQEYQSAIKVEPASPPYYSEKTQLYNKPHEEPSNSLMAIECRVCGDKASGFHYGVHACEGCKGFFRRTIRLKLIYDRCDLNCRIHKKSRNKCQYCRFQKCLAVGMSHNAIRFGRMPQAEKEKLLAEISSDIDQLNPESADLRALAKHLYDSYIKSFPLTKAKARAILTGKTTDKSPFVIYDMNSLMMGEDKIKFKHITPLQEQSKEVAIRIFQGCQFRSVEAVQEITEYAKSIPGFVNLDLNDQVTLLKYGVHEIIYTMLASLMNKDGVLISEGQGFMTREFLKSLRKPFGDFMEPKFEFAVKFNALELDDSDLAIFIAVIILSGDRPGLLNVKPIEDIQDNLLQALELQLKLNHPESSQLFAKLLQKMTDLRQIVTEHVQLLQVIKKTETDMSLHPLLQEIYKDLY
The experiment in a line: PPARγ competition binding assay. The source says: The term ligand throughout this application should be understood to include an agonist, partial agonist or antagonist of LXR. The ligand may be selective for LXRα or LXRβ, or it may have mixed binding affinity for both LXRα and LXRβ. Particularly, compounds within the scope of this invention include those which have greater selectivity as determined by binding affinity for LXRα and/or LXRβ receptors than they have for each of the PPARα, γ and δ receptors.

Assay [2] relates to ABC1 mRNA. In words: Induction of ABC1 mRNA levels in THP-1 macrophages. Format: cell-based. Particulars: Homo sapiens, ABC-1, 0.10 μM, 6 hours, vs DMSO control, read-out: Fold Induction of ABC1 mRNA (Mean ± SEM). As for the experimental part: Induction of ABC1 mRNA levels
Cultured human THP-1 cells were used. All cell culture incubations were performed at 37° C. under 95% air/5% carbon dioxide. Cells were grown in Complete RPMI medium plus 10% FCS (Fetal Calf Serum). Complete RPMI medium is defined as RPMI medium (Sigma Cat.# R8005) containing […], 1 mM Na Pyruvate, 2 mM L-Glutamine, and Antibiotic-Antimyotic Solution (Sigma Cat.# A9909: 100U/ml Penicillin, 0.1 mg/ml Streptomycin, 0.251l/ml Amphotericin B). Cells were differentiated into macrophages by incubation in Complete RPMI medium plus 10% FCS (Fetal Calf Serum) plus 100 nM tetradecanoyl phorbol acetate for three days. After differentiation, the THP-1 macrophages were incubated in Complete RPMI medium plus 10% FCS (Fetal Calf Serum) with the test LXR agonist. After 6 hours at 37° C., the cells were harvested and total RNA prepared using the phenol/guanidine isothiocyanate method as supplied and described by Molecular Research Center, Inc. (TRI REAGENTφ Cat. No. TR 118). ABC1 mRNA levels in the total RNA were measured using the TaqMan® mRNA quantitation system, following protocols published by the manufacturer (Perkin-Elmer). The oligonucleotide PCR primers used to detect ABC1 were:
The oligonucleotide probe used was:
ABC1 mRNA levels in each sample were normalized to the mRNA levels for the 23 kDa highly basic protein. […]

Assay [3] deals with THP-1 macrophages. The experiment in a line: Stimulation of cholesterol efflux from cultured THP-1 macrophages. Type of assay: cell-based, human. Particulars: 24 hours, 10 μg/ml apoA-I acceptor, mean±SEM, DMSO control 9.9 ± 0.5. The text has this: Stimulation of Cholesterol Efflux from Cultured Cells
Patients with Tangier disease have mutations in the ABC1 gene and have very low HDL levels. Cultured cells from these patients are defective in cholesterol efflux (Francis et al. (1995) J. Clin. Invest. 96:78-87). Therefore, induction of ABC1 mRNA should lead to increased cholesterol efflux and increased HDL levels (Francis et al. (1999) Clinica Chimica Acta 286:219-230). TIIP-1 cells were used to determine whether induction of ABC1 mRNA by Compound 1 would increase cholesterol efflux. Specifically, cultured human THP-1 cells were stimulated to differentiate into macrophages by incubation with 100 nM tetradecanoyl phorbol acetate for three days, as described above. After differentiation, the TUP-1 macrophages were labeled with ^3H-cholesterol by incubation for 24 hours with 10 μCi/ml ^3H-cholesterol in Complete RPMI media containing 0.1% lipid-free bovine serum albumin (BSA) plus 100 nM tetradecanoyl phorbol acetate. After labeling, the cells were incubated for 24 hours in Complete RPMI media with 0.1% lipid-free bovine serum albumin (BSA) to allow for equilibration of cellular cholesterol pools. Cholesterol efflux was then measured over the following 24 hours by incubating the cells in Complete RPMI media containing 10 μg/ml of apoA-I as cholesterol acceptor, and either Compound 1 or DMSO as control.

The term IC50 denotes the concentration needed to halve the response being measured. The low end stands for greater potency, the high end for weaker potency.

Bounds are passed on as bounds.

With `CC(=O)Oc1ccc2c(c1)[C@@]1(C)CCC[C@](C)(C(=O)OC(=O)[C@@]3(C)CCC[C@]4(C)c5cc(OC(C)=O)ccc5CC[C@@H]34)[C@@H]1CC2` [Compound 1], the IC50 in assay [1] is more than 10 µM. For the same compound, the fold induction at 0.1 µM in assay [2] stood at 6.9 ± 0.6. Further, the “Cholesterol efflux (% of cell contents)” value in assay [3] (0.02 μM) is given as 14.6 ± 0.5 % of cell contents; in assay [3] (2.5 μM), 17.1 ± 0.6 % of cell contents.

The values are drawn from US20030086923A1, “Method for the prevention and/or treatment of atherosclerosis” (priority 1999, published 2003).
